Measurements: ChEMBL document CHEMBL5370624 (J Med Chem, 2023)
Active and inactive are the calls of the source. The calls are words filed in the database; no cut-off is given here.

Tests used:
[1] = biological target: T1, Toll-like receptor 4 (Homo sapiens, UniProt O00206); experiment: Agonist activity at TLR4 in human PBMC cells assessed as induction of TNFalpha release incubated for 20 hrs by ELISA; assay type: cell-based
[2] = Toxicity in H3N2-A/HK/68 influenza virus-immunized BALB/c mouse model assessed as body weight change at 1 to 10 ug,INH administered 48hrs prior to influenza challenge and measured after 18 days; conditions: in vivo, inhaled_or_intranasal, 432 h, dose 1-10 µg, time 18 day
[3] = biological target: T1, Toll-like receptor 4; experiment: Agonist activity at TLR4 in human PBMC cells assessed as induction of RANTES release incubated for 20 hrs by ELISA; assay type: cell-based
[4] = biological target: T2, Toll-like receptor 4 (Mus musculus, UniProt Q9QUK6); experiment: Agonist activity at TLR4 in mouse RAW264.7 cells assessed as induction of MIP-1beta release incubated for 24 hrs by ELISA; assay type: cell-based
T2 sequence (Q9QUK6 whole entry): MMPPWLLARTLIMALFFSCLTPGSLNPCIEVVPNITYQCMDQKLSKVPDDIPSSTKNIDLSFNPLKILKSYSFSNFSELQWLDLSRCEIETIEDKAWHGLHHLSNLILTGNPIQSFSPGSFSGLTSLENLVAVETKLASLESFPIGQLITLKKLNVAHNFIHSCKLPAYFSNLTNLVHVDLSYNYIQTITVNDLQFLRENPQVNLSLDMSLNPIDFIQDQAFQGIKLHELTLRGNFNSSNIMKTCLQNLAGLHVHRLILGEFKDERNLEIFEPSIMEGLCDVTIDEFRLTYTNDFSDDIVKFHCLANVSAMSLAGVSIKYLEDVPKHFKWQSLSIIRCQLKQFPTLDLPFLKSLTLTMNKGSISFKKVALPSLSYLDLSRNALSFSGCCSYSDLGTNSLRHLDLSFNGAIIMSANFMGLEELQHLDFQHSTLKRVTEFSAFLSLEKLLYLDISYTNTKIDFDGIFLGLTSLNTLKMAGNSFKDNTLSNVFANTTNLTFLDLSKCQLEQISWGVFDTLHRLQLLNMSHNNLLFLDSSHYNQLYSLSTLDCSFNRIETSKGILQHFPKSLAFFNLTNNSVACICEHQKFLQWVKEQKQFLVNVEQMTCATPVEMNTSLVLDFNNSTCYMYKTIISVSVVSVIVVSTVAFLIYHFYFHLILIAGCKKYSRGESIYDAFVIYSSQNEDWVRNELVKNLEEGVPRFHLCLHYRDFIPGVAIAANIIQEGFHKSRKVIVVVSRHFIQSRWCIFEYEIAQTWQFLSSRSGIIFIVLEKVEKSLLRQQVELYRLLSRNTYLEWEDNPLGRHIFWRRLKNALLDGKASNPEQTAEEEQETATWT

[5] = system: Mus musculus; experiment: Immuno-adjuvant activity in H3N2-split A/Victoria/210/2009 influenza virus-immunized BALB/c mouse model assessed as increase in influenza specific serum IgG2a titer level at 0.001 to 0.1 ug,IM administered on day 0 and 14 and measured after 28 days by ELISA; assay type: functional, organism-based; conditions: dose 0.001-0.1 µg, time 28.0 day
[6] = species on record: Mus musculus; experiment: Immuno-adjuvant activity in H3N2-split A/Victoria/210/2009 influenza virus-immunized BALB/c mouse model assessed as increase in influenza specific serum IgG titer level at 0.001 to 0.1 ug,IM and measured after 14 days by ELISA; assay type: functional, organism-based; conditions: dose 0.001-0.1 µg, time 14.0 day
[7] = biological target: T2, Toll-like receptor 4; experiment: Agonist activity at mouse TLR4 in human HEK-Blue mTLR4 cells assessed as NF-kappaB activation incubated for 48 hrs by SEAP reporter gene based Quanti-blue assay; assay type: cell-based
[8] = Toxicity in H3N2-split A/Victoria/210/2009 influenza virus-immunized BALB/c mouse model assessed as reactogenicity at 0.001 to 0.1 ug,IM administered on day 0 and 14 and measured after 28 days; conditions: in vivo, 672 h, dose 0.001-0.1 µg, time 28 day
[9] = biological target: T1, Toll-like receptor 4; experiment: Agonist activity at TLR4 in human MONO-MAC-6 cells assessed as induction of MIP-1beta release incubated for 24 hrs by ELISA; assay type: cell-based
[10] = Toxicity in H3N2-A/HK/68 influenza virus-immunized BALB/c mouse model assessed as change in body temperature at 1 to 10 ug,INH administered 48hrs prior to influenza challenge and measured after 18 days; conditions: in vivo, inhaled_or_intranasal, 432 h, dose 1-10 µg, time 18 day
[11] = Aqueous stability of the compound assessed as drug degradation at 40 degreeC and measured after 3 months by LC-MS analysis; assay type: physicochemical; conditions: buffer, 2190 h
[12] = system: Mus musculus; experiment: Immuno-adjuvant activity in H3N2-split A/Victoria/210/2009 influenza virus-immunized BALB/c mouse model assessed as increase in influenza specific serum IgG1 titer level at 0.001 to 0.1 ug,IM administered on day 0 and 14 and measured after 28 days by ELISA; assay type: functional, organism-based; conditions: dose 0.001-0.1 µg, time 28.0 day
[13] = Toxicity in H3N2-A/HK/68 influenza virus-immunized BALB/c mouse model assessed as disease index at 1 to 10 ug,INH administered 48hrs prior to influenza challenge and measured after 18 days; conditions: in vivo, inhaled_or_intranasal, 432 h, dose 1-10 µg, time 18 day
[14] = biological target: T1, Toll-like receptor 4; experiment: Agonist activity at TLR4 in human PBMC cells assessed as induction of MIP-1beta release incubated for 20 hrs by ELISA; assay type: cell-based
[15] = species on record: Mus musculus; experiment: Immuno-adjuvant activity in H3N2-split A/Victoria/210/2009 influenza virus-immunized BALB/c mouse model assessed as increase in influenza specific serum IgG1 titer level at 0.001 to 0.1 ug,IM and measured after 14 days by ELISA; assay type: functional, organism-based; conditions: dose 0.001-0.1 µg, time 14.0 day
[16] = system: Mus musculus; experiment: Immuno-adjuvant activity in H3N2-A/HK/68 influenza virus-immunized BALB/c mouse model assessed as increase in survival rate at 10 ug,INH administered 48hrs prior to influenza challenge and measured after 18 days; assay type: functional; conditions: dose 10 µg, time 18 day
[17] = system: Mus musculus; experiment: Immuno-adjuvant activity in H3N2-A/HK/68 influenza virus-immunized BALB/c mouse model assessed as increase in survival rate at 1 ug,INH administered 48hrs prior to influenza challenge and measured after 18 days; assay type: functional; conditions: dose 1 µg, time 18 day
[18] = biological target: T1, Toll-like receptor 4; experiment: Agonist activity at TLR4 in human PBMC cells assessed as induction of IL-1beta release incubated for 20 hrs by ELISA; assay type: cell-based
[19] = Toxicity in H3N2-split A/Victoria/210/2009 influenza virus-immunized BALB/c mouse model assessed as abnormality at 0.001 to 0.1 ug,IM administered on day 0 and 14 and measured after 28 days; conditions: in vivo, 672 h, dose 0.001-0.1 µg, time 28 day
[20] = biological target: T1, Toll-like receptor 4; experiment: Agonist activity at human TLR4 in human HEK-Blue hTLR4 cells assessed as NF-kappaB activation incubated for 48 hrs by SEAP reporter gene based Quanti-blue assay; assay type: cell-based
[21] = system: Mus musculus; experiment: Immuno-adjuvant activity in H3N2-split A/Victoria/210/2009 influenza virus-immunized BALB/c mouse model assessed as increase in influenza specific serum IgG titer level at 0.001 to 0.1 ug,IM administered on day 0 and 14 and measured after 28 days by ELISA; assay type: functional, organism-based; conditions: dose 0.001-0.1 µg, time 28.0 day

T1 sequence (O00206 whole entry): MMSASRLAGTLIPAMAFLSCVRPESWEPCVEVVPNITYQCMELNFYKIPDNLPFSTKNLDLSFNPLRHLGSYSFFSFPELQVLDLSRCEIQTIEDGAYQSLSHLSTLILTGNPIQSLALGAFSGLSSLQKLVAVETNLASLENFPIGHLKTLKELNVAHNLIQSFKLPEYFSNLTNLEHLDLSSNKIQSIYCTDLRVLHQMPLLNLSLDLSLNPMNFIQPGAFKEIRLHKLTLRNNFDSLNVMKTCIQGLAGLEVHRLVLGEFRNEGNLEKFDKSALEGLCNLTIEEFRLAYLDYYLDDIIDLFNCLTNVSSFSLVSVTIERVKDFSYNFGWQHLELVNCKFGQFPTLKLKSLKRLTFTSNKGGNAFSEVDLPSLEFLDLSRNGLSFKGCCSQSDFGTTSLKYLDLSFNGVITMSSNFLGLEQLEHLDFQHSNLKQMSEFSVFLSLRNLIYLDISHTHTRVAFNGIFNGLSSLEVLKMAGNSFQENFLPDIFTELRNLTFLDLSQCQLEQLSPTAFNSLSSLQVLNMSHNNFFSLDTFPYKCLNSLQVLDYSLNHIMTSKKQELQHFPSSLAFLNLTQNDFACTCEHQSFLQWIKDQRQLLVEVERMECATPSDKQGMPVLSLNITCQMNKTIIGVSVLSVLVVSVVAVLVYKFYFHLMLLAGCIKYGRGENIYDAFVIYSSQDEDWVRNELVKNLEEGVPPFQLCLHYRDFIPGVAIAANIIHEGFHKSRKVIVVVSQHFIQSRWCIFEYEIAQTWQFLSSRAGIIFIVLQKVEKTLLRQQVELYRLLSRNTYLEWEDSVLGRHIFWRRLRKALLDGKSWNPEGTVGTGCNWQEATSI

CCCCCCCCCCC[C@H](CC(=O)N[C@H]1[C@H](OC[C@H](NC(=O)C[C@@H](CCCCCCCCCCC)OCCCCCCCCCC)C(=O)O)O[C@H](CO)[C@@H](OP(=O)(O)O)[C@@H]1OC(=O)C[C@@H](CCCCCCCCCCC)OCCCCCCCCCC)OCCCCCCCCCC
EC50 [1]: 0.26 nM
Activity [2]: Non-Toxic
EC50 [3]: 0.014 nM
EC50 [4]: 0.015 nM
Activity [5]: Active
Activity [6]: Dose-Dependent Effect
EC50 [7]: 0.005 nM
Activity [8]: Non-Toxic
EC50 [9]: 0.06 nM
Activity [10]: Non-Toxic
Stability [11]: Stable
Activity [12]: Active
Activity [13]: Non-Toxic
EC50 [14]: 0.01 nM
Activity [15]: Dose-Dependent Effect
Survival [16]: 100%
Survival [17]: 60%
EC50 [18]: 0.028 nM
Activity [19]: Non-Toxic
EC50 [20]: 0.93 nM
Activity [21]: Active
